This experiment has as its system M. tuberculosis H37Rv growth inhibition. The experiment can be described thus: M. tuberculosis H37Rv growth inhibitors, H37Rv strain (AID 1626). Particulars: for IC90: measured here: IC90 against H37Rv; for CC50: measured here: Vero cell cytotoxicity.

`CCCCCn1c(=O)c(C(=O)Nc2nc3ccccc3[nH]2)c(O)c2ccccc21`: the IC50 is 0.706 µM, the IC90 came out at 0.757 µM and the CC50 came out at 6.6 µM.
For `CCOC(=O)C(C(=O)OCC)C1N=C(N)N=C2Oc3ccccc3N21` (stereo unspecified), the IC50 is 17.1 µM and the IC90 was 36.7 µM.
On to `COc1ccc(C(=O)CCNc2ccc(C)c(Cl)c2)cc1`, for which the IC50 was 58.9 µM and the IC90 is over 100 µM.
Regarding `N#Cc1ccc(/C=C/C(=O)c2ccccc2)cc1`, the IC50 was 5.89 µM, the IC90 was 7.86 µM and the cytotoxic concentration (CC50) was over 40 µM.
Take `Cc1ccc(Cc2cnc(NC(=O)c3cccs3)s2)cc1`: the IC50 was 5.91 µM, the IC90 came to 6.69 µM and the CC50 is over 40 µM.
As to `CC(C)[C@H]1C(=O)O[C@H](C(C)C)C(=O)N(C)[C@@H](C(C)C)C(=O)O[C@H](C(C)C)C(=O)N(C)[C@@H](C(C)C)C(=O)O[C@H](C(C)C)C(=O)N1C`, the IC50 was 7.26 µM, the IC90 stood at 8.9 µM and the CC50 was 12.3 µM.
Regarding `NC1CCN(c2c(F)cc3c(=O)c(C(=O)O)cn(C4CC4)c3c2Cl)C1` (stereo unspecified), the IC50 is under 0.391 µM and the IC90 was under 0.391 µM.
Take `CC1CCN(C(=O)COC(=O)c2cc3ccccc3cc2O)CC1`: the IC50 was 0.634 µM and the IC90 was determined as 2.51 µM.
With `O=C(Nc1ccc(N2CCN(C(=O)c3ccco3)CC2)cc1)C(c1ccccc1)c1ccccc1`, the IC50 was 12 µM, the IC90 was 14.1 µM and the CC50 is over 40 µM.
Taken in the same sequence, the figures for `COc1ccc(-c2n(CC(=O)OC3CC(C)CCC3C(C)C)c3ccccc3[n+]2C)cc1` (stereo unspecified) were 0.985 µM, 2.37 µM and 23.9 µM.
The corresponding values for `Cn1c2c(c(=O)n(C)c1=O)C(C(F)(F)F)(C(F)(F)F)N=C(c1ccc(Cl)cc1)N2` are 4.92 µM, 6.68 µM and 2.61 µM.
`CCOC(=O)C1CCCc2c1[nH]c1c(C(N)=O)cccc21` (stereo unspecified): the IC50 is 3.38 µM and the IC90 came to 29.1 µM.
The compound `CCN(CC)CCn1c(NC(=O)c2ccc(C(F)(F)F)cc2)nc2ccccc21` yielded a CC50 of over 40 µM.
For the compound `Cn1c(O)c(C=Nc2ccccc2-c2ccccc2)c(=O)n(C)c1=O`, the CC50 is over 40 µM.
On the same count and under the same terms, in the case of `Cc1[nH]c2ccccc2c1C(=O)COC(=O)c1ccc([N+](=O)[O-])s1` it was 31.8 µM.
In the case of `O=C(NCc1ccco1)c1cc([N+](=O)[O-])cc([N+](=O)[O-])c1`, the IC50 is 1.46 µM and the IC90 turned out to be 1.65 µM.
The compound `Cc1ccc(C(=O)CNc2ccc(C)c(Cl)c2)cc1` had an IC90 of over 100 µM.
The same measure, in the same setting: the same measure for `CCOC(=O)CNC(=O)CSc1ncnc2c1nnn2-c1ccc(F)cc1`: over 100 µM.
On to `COc1cnc(-c2ccccn2)nc1Sc1ccc(C)cc1`, for which the IC50 was under 0.195 µM, the concentration for an effect of 90% (IC90) was 2.92 µM and the CC50 came out at 4.24 µM.
`CCOC(=O)Cc1csc(NC(=O)c2csc3c2CCCC3)n1`: the IC50 is 9.18 µM, the IC90 was 12.5 µM and the CC50 was over 40 µM.
`CNc1nc(SC)nc2ccsc12`: the IC50 was 5.66 µM and the IC90 amounted to 15.2 µM.
As to `COc1ccc(-c2noc(CCC(=O)Nc3ccc4c(c3)OCCO4)n2)cc1`, the IC50 was 30.7 µM and the IC90 is over 100 µM.
As for `CCCCCc1cc(=O)oc2c(C(CCN(CC)CC)c3ccc(N(C)C)cc3)c(OC)cc(OC)c12` (stereo unspecified), the IC50 is 4.06 µM, the IC90 was 5.28 µM and the CC50 is 14.9 µM.
Take `CCOC(=O)COc1ccc(S(=O)(=O)NCCC2=CCCCC2)cc1`: the IC50 is 12.1 µM and the IC90 turned out to be 20.8 µM.
As for `CSCCC(NC(=O)c1cc([N+](=O)[O-])cc([N+](=O)[O-])c1)c1nc2ccccc2[nH]1` (stereo unspecified), the IC50 is 5.37 µM and the IC90 turned out to be 5.96 µM.
`CCn1c(/C=C/c2ccc([N+](=O)[O-])o2)nc2ccccc2c1=O`: the IC50 is under 0.195 µM, the IC90 is 0.383 µM and the CC50 is 15.6 µM.
Taken in the same sequence, the figures for `COc1ccc(C2CC(=O)N3C(=C2C#N)SCC3(O)c2ccccc2)cc1` (stereo unspecified) were 7 µM, 12 µM and over 40 µM.
The corresponding values for `Cc1cccc(OCCCCCn2ccnc2)c1C` are 10.6 µM, 11.6 µM and over 40 µM.
For the compound `Cc1ccc(NC(=O)c2ccc(CSc3nccc(C)n3)cc2)cc1`, the IC50 was 12.2 µM and the IC90 is over 100 µM.
The corresponding values for `CCOC(=O)c1ccc(NS(=O)C23CC4CC(CC(C4)C2)C3)cc1` (stereo unspecified) are 7.62 µM and over 100 µM.
Turning to `CC(=O)c1ccc(OCC(=O)Nc2ccc3c(c2)CCC3)cc1`, the IC50 was 12.6 µM, the IC90 is over 100 µM and the CC50 is over 40 µM.
Taken in the same sequence, the figures for `O=[N+]([O-])c1ccc(Sc2cccc3cccnc23)c([N+](=O)[O-])c1` were 32.9 µM, over 100 µM and 4.55 µM.
The corresponding values for `O=[N+]([O-])c1ccc(-c2nc(C(Cl)Cl)c3ccccc3n2)cc1` are under 0.195 µM, under 0.195 µM and under 0.078 µM.
The corresponding values for `Cc1cc(C)n(-c2nc(SCCN(C)C)c3c4c(sc3n2)CCCC4)n1` are 4.2 µM, 6.19 µM and 11.6 µM.
Consider `O=C(Nc1ccc(-c2csnn2)cc1)C1CC1`, for which the IC90 was over 100 µM.
Same read-out and setting: in the case of `CCOc1ccc2nc(NC(=O)CSC3=NCCS3)sc2c1` it was over 100 µM.
Take `Cc1cc(Nc2ccccc2)n(-c2nc3ccccc3[nH]2)n1`: the IC50 is under 0.195 µM, the IC90 was found to be 3.18 µM and the CC50 is over 40 µM.
Compound `COc1cc(/C=C(\C#N)C(=O)NC2CCCCC2C)ccc1OS(=O)(=O)c1ccc(C)cc1` (stereo unspecified) returned an IC90 of over 100 µM and a CC50 of 9.49 µM.
Regarding `Cc1ccc(N2CCN(C(=O)Nc3cccc([N+](=O)[O-])c3)CC2C)cc1` (stereo unspecified), the IC50 was 27.1 µM, the IC90 was over 100 µM and the CC50 is over 40 µM.
For `OCCN1CCN(CC(O)COc2ccc(C34CC5CC(CC(C5)C3)C4)cc2)CC1` (stereo unspecified), the IC50 was 9.56 µM, the IC90 was 15.2 µM and the half-maximal cytotoxic concentration (CC50) was determined as 9.85 µM.
For the compound `CCOC(=O)c1ccc(NC(=O)CCc2nc(-c3ccc(Cl)cc3)no2)cc1`, the IC50 was 0.898 µM and the IC90 was determined as 18.4 µM.
For the compound `c1ccc(CN2CCN(c3nc(NCc4ccco4)c4ccccc4n3)CC2)cc1`, the IC50 was 7.96 µM, the IC90 came to 10.3 µM and the CC50 stood at 35.1 µM.
Regarding `Cc1ccc(-c2csc3ncnc(Oc4ccc5c(C)cc(=O)oc5c4)c23)cc1`, the IC50 is under 0.195 µM, the IC90 is over 100 µM and the CC50 was over 40 µM.
Regarding `CN(C)c1ccc(C(=O)Nc2nnc(C3=COCCO3)o2)cc1`, the IC50 is 23.5 µM, the IC90 turned out to be 26.7 µM and the 50% cytotoxic concentration (CC50) was over 40 µM.
The corresponding values for `COc1ccc(Cn2c(SCc3ccccc3C)nc3cc(OC)c(OC)cc3c2=N)cc1` are 2.24 µM, 3.02 µM and 6.78 µM.
In the case of `COc1ccc(Cl)cc1NC(=O)C(C)N1CCN(C/C=C/c2ccccc2)CC1` (stereo unspecified), the half-maximal inhibitory concentration (IC50) was 12.3 µM and the IC90 is 13.3 µM.
`Cn1c(NC(=O)c2cccc(Cn3cc(Cl)cn3)c2)nc2ccccc21`: the CC50 is over 40 µM.
For `OCCc1ccc(-c2ccc(Cl)cc2)o1`, the IC50 is 23.5 µM and the IC90 is over 100 µM.
The corresponding values for `O=C(CC(Nc1ccc(F)cc1)C(=O)OCC(=O)c1cccs1)c1ccccc1` (stereo unspecified) are 67.1 µM and over 100 µM.
As for `O=C(Nc1ccc(CSc2ccccc2)cc1)c1ccc(CN2CCOCC2)cc1`, the IC50 is 32.2 µM, the IC90 was over 100 µM and the CC50 was over 40 µM.
Taken in the same sequence, the figures for `Cc1ccc(-c2ccc(/C=C3\SC(N4CCOCC4)=NC3=O)o2)cc1` were 23.5 µM, over 100 µM and over 40 µM.
Regarding `CC/C(=C\C(=O)c1cccnc1)Nc1ccc(C)c(C)c1`, the CC50 was over 40 µM.
`CC1(C)OC(=O)C(=Cc2ccc[nH]2)C(=O)O1`: the IC50 is under 0.195 µM and the IC90 is over 100 µM.
Consider `COc1ccc(OCc2nn3c(-c4cccc(OC)c4)nnc3s2)cc1`, for which the IC90 was over 100 µM.
Turning to `CSc1ccc(/C=C/C(=O)c2ccc(NC(C)=O)cc2)cc1`, the IC50 is 28.4 µM and the IC90 is over 100 µM.
`COc1ccc(N2CCN(C(=O)CN3CCN(c4nc(-c5ccc(F)cc5)cs4)CC3)CC2)cc1` came in with a CC50 of over 40 µM.
As to `CCOC(=O)c1cnc(-n2nc(C)cc2C)nc1NCCc1ccccc1`, the IC50 was 0.688 µM, the IC90 came out at 1.06 µM and the cytotoxic concentration (CC50) is over 40 µM.
With `CCC/C(O)=C1\C(=O)CCCC1=NCCc1c(C)[nH]c2ccc(C)cc12`, the IC90 was over 100 µM.
As for `Cn1c(NCc2ccco2)nc2c1c(=O)n(Cc1ccc(Br)cc1)c(=O)n2C`, the IC50 was 99.3 µM, the concentration for an effect of 90% (IC90) was over 100 µM and the CC50 is over 40 µM.
For the compound `Cc1ccc(C(=O)/C=C/c2ccc(-c3ccc(C)cc3)o2)cc1`, the CC50 is 21.9 µM.
For the compound `Cc1ccc(-n2cc(CN(C)Cc3nccn3C)c(-c3cccc(C)c3)n2)cc1`, the IC50 was 9.75 µM, the IC90 worked out at 15.9 µM and the CC50 was over 40 µM.
`NC1=NC[C@H](CC2CCCCC2)N1CCc1cc(C(F)(F)F)cc(C(F)(F)F)c1`: the IC50 was 8.62 µM, the IC90 stood at 11 µM and the CC50 came to 27.4 µM.
As to `Cc1nn(-c2ccc([N+](=O)[O-])cc2)c2c1C(c1ccc(OC(F)F)cc1)N1C(=N2)C(=O)Nc2ccccc21` (stereo unspecified), the IC50 was 4.66 µM, the IC90 was over 100 µM and the CC50 is over 40 µM.
In the case of `CCN1CCN(Cc2ccc(NC(=O)c3ccc(C)c(NC(=O)C(=O)c4c[nH]c5ccccc45)c3)cc2C(F)(F)F)CC1`, the IC50 is 4.32 µM, the IC90 came out at 5.57 µM and the CC50 was found to be 6.73 µM.
`O=C(Nc1nccs1)c1cn(-c2ccccc2)nc1-c1ccccc1` had an IC90 of over 100 µM and a CC50 of over 40 µM.
As to `O=C(OCc1nc2ccccc2s1)c1ccc(Br)o1`, the IC50 was 12.7 µM and the IC90 was over 100 µM.

As a reminder, the IC50 is the point on the concentration scale where inhibition reaches its midpoint. As a reminder, the IC90 is the concentration at which the effect reaches the 90% level. The low end stands for greater potency, the high end for weaker potency. As usually defined, the CC50 is the concentration at which the toxic effect on the cells reaches its halfway point.
